Data on 7 molecules can be found in US20190248834A1, “ENDOMORPHIN-2, TETRAPEPTIDE DERIVATIVES THEREOF, AND USES THEREOF” (priority 2016, published 2019).

Holding throughout (type): in vivo, human
For data set [1], the system named is psoriatic arthritis, fingers and wrists. As to the kind of experiment: Example 95: comparative analgesic efficacy on pain of psoriatic arthritis, topical. As to conditions: for pain relief: 1% (w/v) in WEP442, topical to fingers and wrists. From the text:
[…] Treatment of the subject over the years included methotrexate and other antimetabolites, and in recent years, drugs known as biologic medications. While these agents provided intervals of relief, none provided lasting benefit. Over the past decade, painful arthritis developed in both hands and knees, and in numerous joints of the fingers. Three related tetrapeptide derivatives, 1% (w/v) in vehicle WEP442, were topically applied to the fingers and wrists of both hands one at a time. […] Analgesic efficacy was rated by the subject as 75%.

Data set [2] deals with psoriatic arthritis of finger joints. Put plainly: Example 84: analgesic effect on pain from psoriatic arthritis, topical. As to conditions: 0.8% (w/v) in WEP442, topical. The text has this:
A subject […], had extensive plaque psoriasis and painful arthritis of the interphalangeal joints of both index fingers, left thumb and left 5th finger, which compromised their work performance as an esthetician. The subject topically applied a solution composition containing 0.8% (w/v) of N-Ac-Tyr-Pro-Phe-Phe-NHCH3 (SEQ ID NO: 24) in WEP442 to their painful fingers.

Data set [3] concerns osteoarthritis of the fingers and wrists. Put plainly: Example 83: analgesic effect on osteoarthritic pain, topical. As to conditions: 0.8% (w/v) in WEP442, topical. As for the experimental part: A subject had osteoarthritis of the fingers and wrists for about 10 years, with substantial worsening over the past several months. Symptoms included painful finger joints and wrists. The pain was much worsened by flexion, so that making a first was too painful to try. Moreover, complete flexion had not been possible because of actual physical limitations. Anatomical signs of their disorder, e.g., enlarged finger joints, were conspicuous in their case. After 36 hours of no topical or systemic use of any analgesic agent, pain in the fingers and wrists was again present and substantial, so much so that they were unable to slice vegetables with a knife.

A further data set relates to post-sunburn pain. As to the kind of experiment: Example 86: analgesic effect on sunburn pain, topical. The method, then: A subject, experienced post-sunburn pain at the frontal hairline of the scalp, an area not earlier covered by sunscreen lotion at time of sun exposure several days earlier. They vigorously rubbed the area later to remove lingering skin scales, which caused irritation and pain. […] Relief lasted for 4 hours. […] The condition was then resolved with the use of a hydrating skin cream.

Data set [4] concerns trapezius muscle strain pain. As to the kind of experiment: Example 81: analgesic effect on pain from trapezius muscle strain, topical. As to conditions: 0.7% (w/v) in propylene glycol: triethyl citrate : water (4:4:2). The text has this:
A subject with persistent pain localized to a site medial to the upper right scapula (shoulder blade) topically applied to that site a composition containing 0.7% (w/v) of N-Ac-Tyr-Pro-Phe-Phe-NHCH3(SEQ ID NO: 24) in propylene glycol: triethyl citrate : water (4:4:2 ratio).

The test system of a further data set is lower back (lumbar) pain. Put plainly: Example 85: analgesic effect on lower back pain, topical. The method, then: A subject had lower back (lumbar) pain associated with sitting in a crouched position at a low work table for about 3 hours. Upon their sitting up straight, the pain became more pronounced and persisted as they walked around for 15-20 minutes.

For a further data set, the system named is headache. Put plainly: Example 52: analgesic effect on headache. As to conditions: two 500 mg tablets, oral. From the text: At 5:30 p.m., the headache pain was becoming more intense, at which time they topically applied a composition containing 1% (w/v) of N-Pg-Tyr-Pro-Phe-Phe-NH2 (SEQ ID NO: 44) in WEP442 to the entire forehead and temporal areas. […] There was no recurrence of symptoms over the next 3 days of follow-up time.

Data set [5] has as its system psoriatic arthritis pain, fingers and wrists. As to the kind of experiment: Example 48: comparative analgesic efficacy, psoriatic arthritis pain of fingers and wrists, topical. Conditions: 1% (w/v) in WEP442, topical. From the text: […] Treatment of the subject over the years included methotrexate and other antimetabolites, and in recent years drugs known as biologic medications. While these agents have provided intervals of relief, none has provided a lasting benefit. Over the past decade, painful arthritis developed in both wrists and in numerous joints of the fingers. Four related tetrapeptide derivatives, 1% (w/v) solution compositions in vehicle WEP442, one at a time, were topically applied to the fingers and wrists of both hands. […] Efficacy was rated by the subject as 4+. • (B) N-Ac-Tyr-Pro-Phe-Phe-NHNH2 (SEQ ID NO: 31) provided slow relief of pain, i.e. within about 10 minutes. […] Analgesic efficacy was judged by the subject to be 0 to 1+.

The test system of data set [6] is periostitis of right upper tibia, osteoarthritis of left knee, left hip joint pain, lower back pain. As to the kind of experiment: Example 87: pain relief at multiple sites in one subject, topical. As to conditions: 0.8% (w/v) in WEP442, topical to the sites of pain. The text has this:
A caregiver subject, presented with (a) painful periostitis of the right upper tibia for about 3 months, (b) painful early osteoarthritis of the left knee for about 1 year, (c) painful left hip joint of about 6 months, and (d) lower back pain near the end of the work day for about 2 years.
Over the course of 16 days, this subject evaluated the analgesic efficacy of eight (8) endomorphin-2 tetrapeptide derivatives in WEP442 at a concentration of 0.8% (w/v) applied topically to the sites of pain.
The lower back pain returned toward the end of the following work day.
Relief of lower back pain lasted for 20-24 hours (4+ effect). […]
For the above same subject, the composition containing 0.8% (w/v) of N-Ac-Tyr-Pro-Phe-Phe-NHCH(CH3)2 (SEQ ID NO: 27) in WEP442 was topically applied to the right upper tibia, left knee and left hip.
For the above same subject, the composition containing 0.8% (w/v) of N-Fo-Tyr-Pro-Phe-Phe-NH2 (SEQ ID NO: 104) in WEP442 was topically applied to 3 sites. Relief of pain was variable. […] Relief of pain in the right upper tibia was complete in about 4 minutes, lasting for 12 hours.
For the above same subject, the composition containing 0.8% (w/v) of N-Bz-Tyr-Pro-Phe-Phe-NH2 (SEQ ID NO: 84) in WEP442 provided relief of pain within 2-4 minutes. On the left hip, the relief was complete, lasting for about 12 hours (4+ effect). On the left knee, relief was incomplete, about 50%, lasting for only about 3 hours (2+ effect). On the right upper tibia, relief was complete and lasted for about 12 hours (4+ effect).

The test system of data set [7] is psoriatic arthritis of interphalangeal joints of the fingers. Put plainly: Example 93: multiple derivatives evaluated for relief of pain associated with psoriatic arthritis, topical. Conditions: 0.8% (w/v) in WEP442, topical to both hands. From the text:
A subject with extensive plaque psoriasis and psoriatic arthritis of interphalangeal joints of the fingers evaluated multiple tetrapeptide derivatives for comparative effectiveness on relief of their painful fingers. Over the course of 4 weeks, this subject evaluated the analgesic efficacy of ten (10) endomorphin-2 tetrapeptide derivatives in WEP442 at a concentration of 0.8% (w/v) applied topically to both hands, which included all fingers.

Data set [8] has as its system severe osteoarthritis of both knees. Put plainly: Example 88: analgesic efficacy of eight derivatives on severe osteoarthritis, topical. As to conditions: 1% (w/v) in WEP442, topical to the knees. The method, then:
A subject with severe osteoarthritis of both knees for a duration of about 7 years evaluated numerous tetrapeptide derivatives over the past years. […] Over the course of 3 weeks, this subject evaluated the analgesic efficacy of eight (8) endomorphin-2 tetrapeptide derivatives in WEP442 at a concentration of 1% (w/v) applied topically to the knees.
Reapplication at the end of that time again provided the same effect. Application at bedtime provided relief of pain for 7 hours. The same results were achieved the next day (3+ to 4+ effect).
A second application, about 15 minutes later, provided somewhat more relief (2+ effect).
Application at 9:30 p.m. provided relief until 5:30 a.m., and similar results were achieved the next day (3+ to 4+ effect).
No modification of pain in the right knee, which had received application of vehicle WEP442 as a control, was detected. Application of the composition containing the tetrapeptide derivative to the right knee about 15 minutes later provided prompt relief of pain. Pain relief in both knees lasted for about 5 hours (3+ to 4+ effect).
Relief lasted for about 3 hours. Re-application at that time provided the same degree of pain relief in about 5 minutes, which lasted about another 3 hours (2+ effect).
For the above same subject, the composition containing 1% (w/v) of N-Fo-Tyr-Pro-Phe-Phe-NH2 (SEQ ID NO: 104) in WEP442 was applied to the left knee, and the composition containing 1% (w/v) of N-Bz-Tyr-Pro-Phe-Phe-NH2 (SEQ ID NO: 84) in WEP442 was applied to the right knee moments later. Relief of pain in both knees seemed equivalent, was detectable in 5-7 minutes and lasted for about 4 hours. This procedure was repeated the next day with about the same results. The degree of pain relief from both solutions was rated as 3+ effect.

Data set [9] has as its system osteoarthritis of the knees. As to the kind of experiment: Example 94 (second): osteoarthritic knees, intra-articular injection of N-Bz hydrazide. Conditions: 0.08% (0.8 mg/ml) in water, 1 ml per knee intra-articular. As for the experimental part:
A subject with osteoarthritis of the knees that progressively worsened over the years, evaluated the analgesic effectiveness of many topical preparations of tetrapeptide derivatives of the invention on numerous occasions. After such experiences they decided to self-inject […] knees with a sterile aqueous preparation of N-Bz-Tyr-Pro-Phe-Phe-NHNH2 (SEQ ID NO: 91) at a concentration of 0.08% (0.8 mg/ml) in water. Each knee was injected with 1 ml (0.8 mg) of the preparation via the sub-patellar route. […] The knees felt more comfortable than usual after 24 hours. The improvement from […] was judged to be more than 90% by clinical evaluation.

Primed or numbered codes have the meaning given here. *: point of attachment. Bz′ = not defined here; NHNHAc = CC(=O)NN*; NHPr = CCCN*; NHOH = ON*

As to “N-Ac-Tyr-Pro-Phe-Phe-NHCH2CH2CH3 (Ac-YPFF-NHPr; SMILES CCCNC(=O)[C@H](Cc1ccccc1)NC(=O)[C@H](Cc1ccccc1)NC(=O)[C@@H]1CCCN1C(=O)[C@H](Cc1ccc(O)cc1)NC(C)=O)”, in [1] (1% (w/v) in WEP442, topical), the “analgesic efficacy rated by the subject” value came out at 75%, the “duration of pain relief” value is listed as “less than 6 hours” and the “time to pain relief” value is “more than 5 minutes”. The pain relief entry in [1] was “slower relief of pain”.

Consider “N-Bz-Tyr-Pro-Phe-Phe-NHOH ({Bz′}-YPFF-{NHOH})”, for which, in [1] (1% (w/v) in WEP442, topical), the “analgesic efficacy rated by the subject” value is recorded as 90% and the “duration of pain relief” value is on record as “about 10 hours”. The pain relief result in [1] is listed as “rapid complete relief of pain”.

On to “N-Ac-Tyr-Pro-Phe-Phe-NHCH3 (Ac-YPFF-NHMe; SMILES CNC(=O)[C@H](Cc1ccccc1)NC(=O)[C@H](Cc1ccccc1)NC(=O)[C@@H]1CCCN1C(=O)[C@H](Cc1ccc(O)cc1)NC(C)=O)”, for which the “duration of pain relief” value is “about 7 hours” in data set [2], “about 17 hours” in data set [3] and “about 4 hours” in [4]. Moreover, the pain relief result in data set [2] is listed as “completely relieved”; in data set [3] it was “completely relieved all pain”; in the data set on post-sunburn pain (0.8% (w/v) in WEP442, several applications over the next 24 hours), “complete relief of pain”; in the data set on post-sunburn pain (0.8% (w/v) in WEP442, topical), “almost immediate relief of the painful discomfort”; in data set [4] it was “Complete relief of pain”; in the data set with lower back (lumbar) pain ((w/v) in WEP442, topical) it was “complete resolution of all pain in the lower back”. Moreover, the “time to pain relief” value was 3 to 4 min in [2]; 5 to 7 min in data set [3]; ≤ 2 min in [4]; ≤ 5 min in the data set on lower back (lumbar) pain (0/8% (w/v) in WEP442, topical). The duration of relief in the data set with post-sunburn pain (0.8% (w/v) in WEP442, topical) amounted to 4 h. Also, the recurrence result with lower back (lumbar) pain (0/8% (w/v) in WEP442, topical) is “did not return”.

As to `CC(=O)Nc1ccc(O)cc1` [acetaminophen, reference compound], in the data set on headache, the pain relief result is “slight relief of pain”.

For “N-Pg-Tyr-Pro-Trp-Phe-NH2 [reference compound]”, the pain relief result in [5] is reported as “slow, minimal relief of pain”.

On to “N-Ac-Tyr-Pro-Phe-Phe-NHNHAc (Ac-YPFF-NHNHAc; SMILES CC(=O)NNC(=O)[C@H](Cc1ccccc1)NC(=O)[C@H](Cc1ccccc1)NC(=O)[C@@H]1CCCN1C(=O)[C@H](Cc1ccc(O)cc1)NC(C)=O)”, for which, in [6], the “degree of analgesic effect” value is reported as 4+, the “duration of pain relief” value was 8 to 24 h, the “pain relief at the treated sites” value is recorded as “complete relief of pain” and the “time to pain relief” value lay in the range of 1 to 2 min. In addition, in [7], the “degree of analgesic effectiveness” value is recorded as 4+, the “duration of pain relief” value was “about 7 hours”, the pain relief entry is “complete relief of pain” and the “time to pain relief” value was ≤ 2 min. Also, in data set [8], the “duration of pain relief” value is reported as “about 5 hours”, the pain relief entry is recorded as “substantial relief of pain” and the “time to pain relief” value lay within 2 to 3 min.

Consider `NNC(=O)[C@H](Cc1ccccc1)NC(=O)[C@H](Cc1ccccc1)NC(=O)[C@@H]1CCCN1C(=O)[C@H](Cc1ccc(O)cc1)NC(=O)c1ccccc1` [N-Bz-Tyr-Pro-Phe-Phe-NHNH2], for which, in [1] (1% (w/v) in WEP442, topical), the “analgesic efficacy rated by the subject” value amounted to 100% and the “duration of pain relief” value is given as “about 24 hours”. In [1], the pain relief result was “rapid complete relief of pain”. Moreover, in data set [9], the “discomfort from the injections” value is “no discomfort from the injections”, the “duration of pain relief” value stood at 11 h, the “improvement by clinical evaluation” value is given as “more than 90%” and the “pains in both knees” value is recorded as “gradually disappeared”.
